{"source": "patent US8722676B2", "about": "“Bicyclic piperazine compounds” (Genentech, Inc., priority 2011, dated 2014)", "tested_on": "production of CD69 by B lymphocytes in human whole blood activated with goat F(ab')2 anti-human IgM", "assay": "CD69 Whole Blood Assay (CD69 Hu Blood FACS)", "format": "cell-based", "details": "anti-IgM stimulated, 20 hour incubation, CD69+ of CD20+ cells", "excerpt": "A CD69 Whole Blood Assay can be conducted on Formula I compounds to determine the ability of compounds to inhibit the production of CD69 by B lymphocytes in human whole blood activated by crosslinking surface IgM with goat F(ab′)2 anti-human IgM (Example 907). CD69 is a type II C-type lectin involved in lymphocyte migration and cytokine secretion. CD69 expression represents one of the earliest available indicators of leukocyte activation and its rapid induction occurs through transcriptional activation (Vazquez et al (2009) Jour. of Immunology Published Oct. 19, 2009, doi:10.4049/jimmunol.0900839). Concentration-dependent inhibition of antigen receptor stimulation by selective Btk inhibitors induces cell surface expression of the lymphocyte activation marker CD69 (Honigberg et al (2010) Proc. Natl. Acad. Sci. 107(29):13075-13080). Thus, CD69 inhibition by selective Btk inhibitors may be correlated with therapeutic efficacy of certain B-cell disorders.\nHuman blood is obtained from healthy volunteers, with the following restrictions: 1 week drug-free, non-smokers. Blood (approximately 20 mls to test 8 compounds) is collected by venipuncture into Vacutainer® (Becton, Dickinson and Co.) tubes with sodium heparin.\nSolutions of Formula I compounds at 10 mM in DMSO are diluted 1:10 in 100% DMSO, then are diluted by three-fold serial dilutions in 100% DMSO for a ten point dose-response curve. The compounds are further diluted 1:10 in PBS and then an aliquot of 5.5 μl of each compound is added in duplicate to a 2 ml 96-well plate; 5.5 μl of 10% DMSO in PBS is added as control and no-stimulus wells. Human whole blood—HWB (100 μl) is added to each well. After mixing the plates are incubated at 37° C., 5% CO2, 100% humidity for 30 minutes. Goat F(ab′)2 anti-human IgM (10 μl of a 500 μg/ml solution, 50 μg/ml final) is added to each well (except the no-stimulus wells) with mixing and the plates are incubated for an additional 20 hours. At the end of the 20 hour incubation, samples are incubated with fluorescent labeled antibodies for 30 minutes, at 37° C., 5% CO2, 100% humidity. Include induced control, unstained and single stains for compensation adjustments and initial voltage settings. Samples are then lysed with PharM Lyse™ (BD Biosciences Pharmingen) according to the manufacturer's instructions. Samples are then transferred to a 96 well plate suitable to be run on the BD Biosciences HTS 96 well system on the LSRII machine. Data acquired and Mean Fluorescence Intensity values were obtained using BD Biosciences DIVA Software. Results are initially analyzed by FACS analysis software (Flow Jo)."}
{"smiles": "Cn1cnc2c(Nc3ccc(N4CCN(C5COC5)CC4)cn3)cc(-c3cc(F)cc(N4CCn5c(cc6c5CCCC6)C4=O)c3CO)cc21", "note": "[Compound 109, 2-(5-Fluoro-2-(hydroxymethyl)-3-(3-methyl-7-(5-(4-(oxetan-3-yl)piperazin-1-yl)pyridin-2-ylamino)-3H-benzo[d]imidazol-5-yl)phenyl)-3,4,6,7,8,9-hexahydropyrazino[1,2-a]indol-1(2H)-one]", "values": [{"measurement": "CD69 Hu Blood FACS IC70", "setting": "Table 1", "value": 1300, "unit": "nM"}]}
{"smiles": "O=C1c2sc3c(c2CCN1c1cc(F)cc(-c2cc(Nc4ccc(N5CCN(C6COC6)CC5)cn4)c4nccn4n2)c1CO)CCCC3", "note": "[Compound 111, 5-[5-Fluoro-2-(hydroxymethyl)-3-(8-(5-(4-(oxetan-3-yl)piperazin-1-yl)pyridin-2-ylamino)imidazo[1,2-b]pyridazin-6-yl)phenyl]-8-thia-5-azatricyclo[7.4.0.0^2,7]trideca-1(9),2(7)-dien-6-one]", "values": [{"measurement": "CD69 Hu Blood FACS IC70", "setting": "Table 1", "value": 313, "unit": "nM"}]}
{"smiles": "O=C1c2cc3c(n2CCN1c1nccc(-c2cc(Nc4ccc(N5CCN(C6COC6)CC5)cn4)c4nc[nH]c4c2)c1CO)CCCC3", "note": "[Compound 118, 2-[3-(hydroxymethyl)-4-[7-[[5-[4-(oxetan-3-yl)piperazin-1-yl]-2-pyridyl]amino]-3H-benzimidazol-5-yl]-2-pyridyl]-3,4,6,7,8,9-hexahydropyrazino[1,2-a]indol-1-one]", "values": [{"measurement": "CD69 Hu Blood FACS IC70", "setting": "Table 2", "value": 4300, "unit": "nM"}]}
{"smiles": "CN1CCn2nc(Nc3cc(-c4ccnc(N5CCn6c(cc7c6CCCC7)C5=O)c4CO)nn4ccnc34)cc2C1", "note": "[Compound 124, 2-[3-(hydroxymethyl)-4-[8-[(5-methyl-6,7-dihydro-4H-pyrazolo[1,5-a]pyrazin-2-yl)amino]imidazo[1,2-b]pyridazin-6-yl]-2-pyridyl]-3,4,6,7,8,9-hexahydropyrazino[1,2-a]indol-1-one]", "values": [{"measurement": "CD69 Hu Blood FACS IC70", "setting": "Table 2", "value": 333, "unit": "nM"}]}
